Measurements reported in ChEMBL document CHEMBL1154700, “3D-QSAR studies on unsaturated 4-azasteroids as human 5alpha-reductase inhibitors: a self organizing molecular field analysis approach” (Eur J Med Chem, 2010).

Species: Homo sapiens
Assay: Inhibition of human 5 alpha reductase assessed as -log of ratio of IC50 of drug to the IC50 of reference compound

SMILES | -log(RatioIC50)
COC(=O)[C@@H](C)[C@H]1CC[C@H]2[C@@H]3CC[C@H]4N(C)C(=O)C=C[C@]4(C)[C@H]3CC[C@]12C | -2.18
C[C@]12C=CC(=O)N[C@@H]1CC[C@@H]1[C@@H]2CC[C@@]2(C)[C@H]1CC[C@@]21CCCO1 | -3
CN1C(=O)C=C[C@]2(C)[C@H]3CC[C@]4(C)[C@@H](C(=O)NC(C)(C)CC(C)(C)C)CC[C@H]4[C@@H]3CC[C@@H]12 | -0.477
CN1C(=O)C=C[C@]2(C)[C@H]3CC[C@]4(C)[C@@H](C(=O)NC(C)(C)C)CC[C@H]4[C@@H]3CC[C@@H]12 | -0.778
CCN(CC)C(=O)/C=C/[C@H]1CC[C@H]2[C@@H]3CC[C@H]4N(C)C(=O)CC[C@]4(C)[C@H]3CC[C@]12C | -0.301
C[C@]12C=CC(=O)N[C@@H]1CC[C@@H]1[C@@H]2CC[C@]2(C)[C@@H](C(=O)Sc3ccccn3)CC[C@@H]12 | 0
C[C@]12C=CC(=O)N[C@@H]1CC[C@@H]1[C@@H]2CC[C@]2(C)[C@@H](O)CC[C@@H]12 | -2
CC(C)(C)CC(C)(C)NC(=O)[C@H]1CC[C@H]2[C@@H]3CC[C@H]4NC(=O)C=C[C@]4(C)[C@H]3CC[C@]12C | -0.079
CCNC(=O)[C@H]1CC[C@H]2[C@@H]3CC[C@H]4N(C)C(=O)C=C[C@]4(C)[C@H]3CC[C@]12C | -2.18
CCNC(=O)[C@H]1CC[C@H]2[C@@H]3CC[C@H]4NC(=O)C=C[C@]4(C)[C@H]3CC[C@]12C | -1.18
CN1C(=O)C=C[C@]2(C)[C@H]3CC[C@@]4(C)[C@@H](CC[C@@]45CCCO5)[C@@H]3CC[C@@H]12 | -3.1
C[C@]12C=CC(=O)N[C@@H]1CC[C@@H]1[C@@H]2CC[C@]2(C)[C@@H](C(=O)c3ccc[nH]3)CC[C@@H]12 | -1
COC(=O)[C@@H](C)[C@H]1CC[C@H]2[C@@H]3CC[C@H]4NC(=O)C=C[C@]4(C)[C@H]3CC[C@]12C | -1.48
CN1C(=O)C=C[C@]2(C)[C@H]3CC[C@]4(C)[C@@H](C(=O)c5ccc[nH]5)CC[C@H]4[C@@H]3CC[C@@H]12 | -1.52
CNC(=O)[C@H]1CC[C@H]2[C@@H]3CC=C4N(C)C(=O)CC[C@]4(C)[C@H]3CC[C@]12C | -1.57

Results, then the compound that gave them:

-log(RatioIC50) | SMILES
-0.785 | CCN(CC)C(=O)[C@H]1CC[C@H]2[C@@H]3CC[C@H]4NC(=O)C=C[C@]4(C)[C@H]3CC[C@]12C
-1.48 | CC(C)CC(=O)[C@H]1CC[C@H]2[C@@H]3CC[C@H]4N(C)C(=O)C=C[C@]4(C)[C@H]3CC[C@]12C
-1.92 | C[C@]12C=CC(=O)N[C@@H]1CC[C@@H]1[C@@H]2CC[C@]2(C)[C@@H](C(N)=O)CC[C@@H]12
-0.881 | CCC(C)C(=O)[C@H]1CC[C@H]2[C@@H]3CC[C@H]4NC(=O)C=C[C@]4(C)[C@H]3CC[C@]12C (stereo partly specified)
-0.653 | CCN(CC)C(=O)[C@H]1CC[C@H]2[C@@H]3CC=C4N(C)C(=O)CC[C@]4(C)[C@H]3CC[C@]12C
-2 | CCOC(=O)/C=C1\CC[C@H]2[C@@H]3CC=C4N(C)C(=O)CC[C@]4(C)[C@H]3CC[C@]12C
-1.7 | CCC(C)C(=O)[C@H]1CC[C@H]2[C@@H]3CC[C@H]4N(C)C(=O)C=C[C@]4(C)[C@H]3CC[C@]12C (stereo partly specified)
-1 | CC(C)N(C(=O)[C@H]1CC[C@H]2[C@@H]3CC[C@H]4N(C)C(=O)C=C[C@]4(C)[C@H]3CC[C@]12C)C(C)C
-0.602 | CC(C)N(C(=O)[C@H]1CC[C@H]2[C@@H]3CC=C4NC(=O)CC[C@]4(C)[C@H]3CC[C@]12C)C(C)C
-1.56 | COC(=O)[C@H]1CC[C@H]2[C@@H]3CC[C@H]4NC(=O)C=C[C@]4(C)[C@H]3CC[C@]12C
0.26 | CC(C)(C)NC(=O)[C@H]1CC[C@H]2[C@@H]3CC[C@H]4NC(=O)C=C[C@]4(C)[C@H]3CC[C@]12C
-0.204 | CC(C)N(C(=O)[C@H]1CC[C@H]2[C@@H]3CC[C@H]4NC(=O)C=C[C@]4(C)[C@H]3CC[C@]12C)C(C)C
-1.43 | CC(C)N(C(=O)[C@H]1CC[C@H]2[C@@H]3CC=C4N(C)C(=O)C=C[C@]4(C)[C@H]3CC[C@]12C)C(C)C
-1.34 | CCN(CC)C(=O)[C@H]1CC[C@H]2[C@@H]3CC[C@H]4N(C)C(=O)C=C[C@]4(C)[C@H]3CC[C@]12C
-0.255 | CC(C)CC(=O)[C@H]1CC[C@H]2[C@@H]3CC[C@H]4NC(=O)C=C[C@]4(C)[C@H]3CC[C@]12C
-0.204 | CC(C)N(C(=O)[C@H]1CC[C@H]2[C@@H]3CC=C4N(C)C(=O)CC[C@]4(C)[C@H]3CC[C@]12C)C(C)C
